Results reported in BindingDB's records for doi:10.1124/jpet.102.039867 (Institut De Recherches Servier, 2002).

Target: T1, Alpha-2C adrenergic receptor (Homo sapiens, UniProt P18825)
T1 sequence (P18825 whole entry): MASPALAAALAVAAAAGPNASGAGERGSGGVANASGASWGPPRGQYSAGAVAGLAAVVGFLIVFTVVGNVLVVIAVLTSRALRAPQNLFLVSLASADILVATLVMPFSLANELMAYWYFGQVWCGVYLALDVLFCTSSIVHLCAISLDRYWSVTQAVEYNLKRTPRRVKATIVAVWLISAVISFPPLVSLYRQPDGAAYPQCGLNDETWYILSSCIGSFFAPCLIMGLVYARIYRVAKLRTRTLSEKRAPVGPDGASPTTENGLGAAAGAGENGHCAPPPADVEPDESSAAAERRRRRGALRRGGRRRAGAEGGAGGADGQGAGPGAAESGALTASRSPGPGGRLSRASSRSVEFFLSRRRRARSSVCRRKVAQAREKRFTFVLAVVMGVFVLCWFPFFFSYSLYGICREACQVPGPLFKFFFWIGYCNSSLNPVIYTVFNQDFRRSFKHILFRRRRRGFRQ

| Compound | Ki [nM] |
| --- | --- |
| CN(C)C1CCc2cc(O)c(O)cc2C1 (stereo not given) [(6,7-Dihydroxy-1,2,3,4-tetrahydro-naphthalen-2-yl)-dimethyl-ammonium] | 6.03 |
| C=CCN1CC(C(=O)N(CCCN(C)C)C(=O)NCC)CC2c3cccc4[nH]cc(c34)CC21 (stereo not given) [NSC_54746] | 22.4 |
| CCCNC1CCc2nc(N)sc2C1 (stereo not given) [Pramipexole] | > 10000 |
| CCCN1CCC[C@@H]2Cc3nc(N)ncc3C[C@H]21 [Quinerolane] | > 10000 |
| CN1CCc2cccc3c2[C@H]1Cc1ccc(O)c(O)c1-3 [APOKYN] | 36.3 |
| CCCN1C[C@H](CSC)C[C@@H]2c3cccc4[nH]cc(c34)C[C@H]21 [Permax] | 67.6 |
| Oc1ccc2[nH]cc(CCCCN3CC=C(c4ccccc4)CC3)c2c1 | 1.78 |
| CCCN(CCC)CCc1cccc2c1CC(=O)N2 | 1200 |
| CCN(CC)C(=O)N[C@H]1C[C@@H]2c3cccc4[nH]cc(c34)C[C@H]2N(C)C1 | 0.76 |
| C=CCN1CCc2nc(N)sc2CC1 [B-HT 920] | 42.7 |
